Test results: paper PMC3914206

Tests used:
Format in all cases: binding
Conditions in all cases: Compound Concentration 10 µM
panel of 442 kinases [1] = biological target: T1, panel of 442 kinases (Homo sapiens, UniProt P10721)
T1 construct: purchased KINOMEscan
Text: (§1) We assessed the selectivity of members of this scaffold using the KINOMEscan methodology across a near comprehensive panel of 442 kinases [[18,27]].

panel of 442 kinases [2] = biological target: T2, panel of 442 kinases (Homo sapiens, UniProt Q32MK0)
T2 construct: purchased KINOMEscan
T2 sequence (Q32MK0 1-819): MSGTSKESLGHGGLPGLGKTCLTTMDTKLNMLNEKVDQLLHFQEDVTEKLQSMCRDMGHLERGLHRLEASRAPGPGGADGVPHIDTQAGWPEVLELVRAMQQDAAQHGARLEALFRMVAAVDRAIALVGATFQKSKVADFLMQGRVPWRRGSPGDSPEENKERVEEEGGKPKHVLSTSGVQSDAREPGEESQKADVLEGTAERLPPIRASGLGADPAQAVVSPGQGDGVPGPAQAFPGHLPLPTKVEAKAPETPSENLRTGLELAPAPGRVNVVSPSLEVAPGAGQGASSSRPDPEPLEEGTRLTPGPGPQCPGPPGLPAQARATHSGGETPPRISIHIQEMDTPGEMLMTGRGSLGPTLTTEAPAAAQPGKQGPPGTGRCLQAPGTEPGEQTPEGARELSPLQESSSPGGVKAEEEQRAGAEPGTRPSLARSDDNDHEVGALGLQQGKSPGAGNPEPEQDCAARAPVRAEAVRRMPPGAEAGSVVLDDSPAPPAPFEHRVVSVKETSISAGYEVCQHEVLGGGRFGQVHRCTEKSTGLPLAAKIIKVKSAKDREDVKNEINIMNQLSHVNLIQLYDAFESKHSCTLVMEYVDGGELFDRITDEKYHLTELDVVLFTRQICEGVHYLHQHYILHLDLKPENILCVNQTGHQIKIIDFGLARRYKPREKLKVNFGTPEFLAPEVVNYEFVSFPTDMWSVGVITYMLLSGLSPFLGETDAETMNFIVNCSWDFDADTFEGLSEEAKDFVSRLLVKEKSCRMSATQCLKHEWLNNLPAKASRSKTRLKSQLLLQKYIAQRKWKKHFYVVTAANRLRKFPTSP
Text: as §1

panel of 442 kinases [3] = biological target: T3, panel of 442 kinases (Homo sapiens, UniProt Q8N4C8)
T3 construct: purchased KINOMEscan
T3 sequence (Q8N4C8 whole entry): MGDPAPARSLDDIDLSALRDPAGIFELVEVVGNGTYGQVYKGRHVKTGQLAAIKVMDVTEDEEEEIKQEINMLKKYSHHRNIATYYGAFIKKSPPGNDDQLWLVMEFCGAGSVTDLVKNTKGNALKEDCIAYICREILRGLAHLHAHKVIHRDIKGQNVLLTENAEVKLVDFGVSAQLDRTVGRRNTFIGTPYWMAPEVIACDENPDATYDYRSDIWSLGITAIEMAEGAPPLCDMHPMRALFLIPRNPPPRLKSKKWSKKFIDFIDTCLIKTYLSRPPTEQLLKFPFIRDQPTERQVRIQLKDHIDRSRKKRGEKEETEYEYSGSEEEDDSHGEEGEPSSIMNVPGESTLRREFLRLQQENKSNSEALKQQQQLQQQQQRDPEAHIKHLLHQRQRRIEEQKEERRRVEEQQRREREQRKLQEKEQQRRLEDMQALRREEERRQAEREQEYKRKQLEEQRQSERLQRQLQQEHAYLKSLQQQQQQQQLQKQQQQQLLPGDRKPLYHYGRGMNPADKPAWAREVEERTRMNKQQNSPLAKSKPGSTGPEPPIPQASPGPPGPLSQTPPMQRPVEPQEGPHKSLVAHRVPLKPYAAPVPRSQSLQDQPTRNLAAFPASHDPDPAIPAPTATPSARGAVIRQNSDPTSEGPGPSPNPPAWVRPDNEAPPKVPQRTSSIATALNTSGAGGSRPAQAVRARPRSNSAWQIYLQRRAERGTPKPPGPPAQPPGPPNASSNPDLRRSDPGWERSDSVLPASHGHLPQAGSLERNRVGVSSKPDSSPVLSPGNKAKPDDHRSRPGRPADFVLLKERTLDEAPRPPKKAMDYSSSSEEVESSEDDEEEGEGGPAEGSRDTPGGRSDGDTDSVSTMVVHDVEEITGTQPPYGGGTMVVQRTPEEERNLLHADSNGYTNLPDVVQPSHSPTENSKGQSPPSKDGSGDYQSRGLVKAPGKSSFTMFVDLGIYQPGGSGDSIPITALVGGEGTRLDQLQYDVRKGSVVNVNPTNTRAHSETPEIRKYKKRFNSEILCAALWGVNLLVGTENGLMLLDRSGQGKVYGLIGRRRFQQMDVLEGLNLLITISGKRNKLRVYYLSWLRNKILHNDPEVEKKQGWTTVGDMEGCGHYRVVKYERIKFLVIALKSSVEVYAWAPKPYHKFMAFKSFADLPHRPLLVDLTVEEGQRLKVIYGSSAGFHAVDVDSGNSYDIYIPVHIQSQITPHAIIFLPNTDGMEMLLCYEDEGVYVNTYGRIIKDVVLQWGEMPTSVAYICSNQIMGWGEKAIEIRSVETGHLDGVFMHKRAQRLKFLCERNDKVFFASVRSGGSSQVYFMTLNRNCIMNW
Text: as §1

T1 sequence (P10721 26-976): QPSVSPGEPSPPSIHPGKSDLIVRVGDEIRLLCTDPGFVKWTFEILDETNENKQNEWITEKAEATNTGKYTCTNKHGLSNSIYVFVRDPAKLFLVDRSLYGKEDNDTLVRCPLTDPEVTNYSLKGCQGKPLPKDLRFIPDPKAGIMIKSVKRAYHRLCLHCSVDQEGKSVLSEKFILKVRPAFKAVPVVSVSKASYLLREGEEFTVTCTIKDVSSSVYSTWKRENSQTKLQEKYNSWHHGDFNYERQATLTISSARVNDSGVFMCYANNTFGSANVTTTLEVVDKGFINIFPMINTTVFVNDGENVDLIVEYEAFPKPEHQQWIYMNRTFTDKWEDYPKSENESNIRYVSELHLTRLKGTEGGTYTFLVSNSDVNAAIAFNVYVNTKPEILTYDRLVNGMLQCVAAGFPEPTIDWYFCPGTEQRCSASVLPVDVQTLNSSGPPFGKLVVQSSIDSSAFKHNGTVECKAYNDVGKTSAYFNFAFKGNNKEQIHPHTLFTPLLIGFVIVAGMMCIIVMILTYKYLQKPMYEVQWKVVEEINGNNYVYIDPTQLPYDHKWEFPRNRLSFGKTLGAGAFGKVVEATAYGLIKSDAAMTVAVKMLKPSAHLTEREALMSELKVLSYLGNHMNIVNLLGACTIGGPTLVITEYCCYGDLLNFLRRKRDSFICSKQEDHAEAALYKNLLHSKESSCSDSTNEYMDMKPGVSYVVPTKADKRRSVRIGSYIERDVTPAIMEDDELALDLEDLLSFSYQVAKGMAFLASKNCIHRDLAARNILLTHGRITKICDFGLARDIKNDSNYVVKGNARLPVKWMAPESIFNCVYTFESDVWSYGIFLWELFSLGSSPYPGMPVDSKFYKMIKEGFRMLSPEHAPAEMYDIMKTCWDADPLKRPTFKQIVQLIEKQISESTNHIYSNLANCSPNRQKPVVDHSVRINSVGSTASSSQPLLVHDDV

Structure (SMILES)	KINOMEscan: KIT (panel of 442 kinases [1])	KINOMEscan: MLCK (panel of 442 kinases [2])	KINOMEscan: MINK (panel of 442 kinases [3])
COc1cc(C(=O)N2CCC(N3CCN(C)CC3)CC2)ccc1Nc1ncc2c(n1)N(C)c1ccccc1C(=O)N2C [15 (LRRK2-IN-1)]	100	100	77
COc1cc(C(=O)N2CCC(N3CCN(C)CC3)CC2)ccc1Nc1ncc2c(n1)N1CCc3cccc(c31)C(=O)N2C [Compound 24]			36
COc1cc(C(=O)N2CCC(N3CCN(C)CC3)CC2)ccc1Nc1ncc2c(n1)N(C1CCCC1)c1ccccc1C(=O)N2C [Compound 25, 11-cyclopentyl-2-((2-methoxy-4-(4-(4-methylpiperazin-1-yl)piperidine-1-carbonyl)phenyl)amino)-5-methyl-5H-benzo[e]pyrimido[5,4-b][1,4]diazepin-6(11H)-one]	91	100	100
CCOc1cc(C(=O)N2CCC(N3CCN(C)CC3)CC2)ccc1Nc1ncc2c(n1)N(C1CCCC1)c1ccccc1C(=O)N2C [Compound 26]	100	100	100
